Values of other authors in patent US12465571B2, “Solid dosage form” (University of Lancashire, priority 2016, dated 2025).

Details: high solubility and high permeability

Biopharmaceutical Classification System class: class I
SMILES: Cn1c(=O)c2[nH]cnc2n(C)c1=O [theophylline, Theophylline]
